By IC50 is commonly meant the concentration that inhibits the measured activity by half. As a reminder, the CC50 is the concentration that lowers cell viability or growth by half. Low readings indicate harm at low concentration, high ones better tolerance by the cells. Usually pEC50 stands for −log10 of the EC50, conventionally taken in molar units. A high value points to a small EC50. Usually pIC50 stands for the IC50 on a negative log10 scale, so that one unit is a factor of ten.

Data on seven molecules can be found in US20230310414A1.

pEC50, pIC50: −log10 of the molar value. Like-named read-outs stand apart in the source and are kept apart here.

The subject of data set [1] is IRAK1, NF-κB, MAPKs, IRAK4 (MyD88). The experiment in a line: MyD88 downstream signalling in human macrophages. The class given is cell-based.
Another data set has as its system SARS-CoV-2. The experiment in a line: cell viability (CPE) assay, VERO-E6 cells enriched for ACE-2 infected with SARS-CoV-2, CellTiter-Glo. It counts as cell-based. To be noted: for IC50: positive controls, read-out: IC50 (μM), In Vitro Anti-SARS-CoV-2 Activity; for pEC50: CPE assay. (In general: In ATP-based viability assays light output follows the ATP content of the culture.)

The nature of data set [2]: toxicity assay, VERO-E6 cells enriched for ACE-2 in the absence of virus, CellTiter-Glo. To be noted: African green monkey, VERO-E6 cells enriched for ACE-2 receptor, no virus.
Another data set concerns VERO-E6 cells. The data set is described as above. To be noted: compound alone.
[3] abbreviates: human macrophages, through interaction with MyD88.
Where [4] appears, read: Severe acute respiratory syndrome coronavirus 2, Vero C1008, VERO-E6 cells enriched for ACE-2 plus SARS-CoV-2.

As to `O.O=C(OC[C@H]1O[C@@H](OC(=O)c2cc(O)c(O)c(O)c2)[C@H](OC(=O)c2cc(O)c(O)c(O)c2)[C@@H](OC(=O)c2cc(O)c(O)c(O)c2)[C@@H]1OC(=O)c1cc(O)c(O)c(O)c1)c1cc(O)c(O)c(O)c1`, in data set [1], the “NF-κB translocation into the nucleus” value is listed as “inhibited”. Moreover, in data set [1] (setting [3]), the “activation of IRAK1, NF-κB, and MAPKs” value was “potently reduced”; the “expression of IRAK4” value was “increasing expression”.
For `CCN(CC)CCCC(C)Nc1ccnc2cc(Cl)ccc12` (centres unmarked) [Chloroquine, chloroquine, reference compound], the 50% inhibitory concentration (IC50) with SARS-CoV-2 (setting [4]) was found to be 3.78 µM. For the same molecule, the CC50 in data set [2] was greater than 30 µM.
The like results for `CCOC(=O)[C@H]1O[C@@H]1C(=O)N[C@@H](CC(C)C)C(=O)NCCC(C)C` [E64d (aloxistatin), aloxistatin, reference compound] were, in that order, 7.48 µM and greater than 30 µM.
For `CCN(CCO)CCCC(C)Nc1ccnc2cc(Cl)ccc12` (centres unmarked) [Hydroxychloroquine, hydroxychloroquine, reference compound], in that order: 3.53 µM and greater than 30 µM.
`CCC(CC)COC(=O)[C@H](C)N[P@](=O)(OC[C@H]1O[C@@](C#N)(c2ccc3c(N)ncnn23)[C@H](O)[C@@H]1O)Oc1ccccc1` [Remdesivir, remdesivir, reference compound] returned a CC50 in data set [2] greater than 30 µM.
`COc1ccc2cc1Oc1ccc(cc1)C[C@H]1c3cc(c(OC)cc3CCN1C)Oc1c(OC)c(OC)cc3c1[C@H](C2)N(C)CC3` [tetrandrine, (1S,14S)-9,20,21,25-tetramethoxy-15,30-dimethyl-7,23-dioxa-15,30-diazaheptacyclo[22.6.2.2^3,6.1^8,12.1^14,18.0^27,31.0^22,33]hexatriaconta-3(36),4,6(35),8,10,12(34),18,20,22(33),24,26,31-dodecaene] had a negative-log EC50 (pEC50) in the data set on SARS-CoV-2 (Severe acute respiratory syndrome coronavirus 2, Vero C1008, compound alone) of 5.90. Also, the “SI (selectivity index; CC50/EC50)” value in the data set with SARS-CoV-2 (compound alone) is recorded as “SI: 5.02”. Also, in data set [2], the half-maximal cytotoxic concentration (CC50) came out at 6.28 µM.
As for “(14S,27S)-22,33-dimethoxy-13,28-dimethyl-2,5,7,20-tetraoxa-13,28-diazaoctacyclo[25.6.2.2^16,19.1^3,10.1^21,25.0^4,8.0^31,35.0^14,39]nonatri-aconta-1(33),3(39),4(8),9,16(38),17,19(37),21,23,25(36),31,34-dodecaene [cepharanthine]”, the negative logarithm of the EC50 (pEC50) in the data set with SARS-CoV-2 (compound alone) is 6.29. Further, the negative logarithm of the IC50 (pIC50) in the data set on SARS-CoV-2 (VERO-E6 cells enriched for ACE-2 plus SARS-CoV-2, compound alone, read-out: IC50) was 6.29. The CC50 in the data set with VERO-E6 cells (VERO-E6 cells enriched for ACE-2, absence of virus) amounted to 7.22 µM; in the data set with VERO-E6 cells it was 7.22 µM.
